# Test results as given in ChEMBL document CHEMBL1201862, “PubChem BioAssay data set” (2004).
# Active and inactive are the calls of the source.
# Assays:
# [1] = target: T1, Heat shock factor protein 1 (Mus musculus, UniProt P38532); experiment: decrease of HSF1-responsive luciferase luminescence – cell-based, NIH3T3, dose retest, confirmation (AID 2382); assay type: functional;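 further: NIH3T3 fibroblasts with HSF1-driven luciferase reporter stressed by proteasome inhibitor MG132; luminescence from HSF1-driven luciferase expression after 8 hours of MG132 stress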
# T1 sequence (P38532 whole entry): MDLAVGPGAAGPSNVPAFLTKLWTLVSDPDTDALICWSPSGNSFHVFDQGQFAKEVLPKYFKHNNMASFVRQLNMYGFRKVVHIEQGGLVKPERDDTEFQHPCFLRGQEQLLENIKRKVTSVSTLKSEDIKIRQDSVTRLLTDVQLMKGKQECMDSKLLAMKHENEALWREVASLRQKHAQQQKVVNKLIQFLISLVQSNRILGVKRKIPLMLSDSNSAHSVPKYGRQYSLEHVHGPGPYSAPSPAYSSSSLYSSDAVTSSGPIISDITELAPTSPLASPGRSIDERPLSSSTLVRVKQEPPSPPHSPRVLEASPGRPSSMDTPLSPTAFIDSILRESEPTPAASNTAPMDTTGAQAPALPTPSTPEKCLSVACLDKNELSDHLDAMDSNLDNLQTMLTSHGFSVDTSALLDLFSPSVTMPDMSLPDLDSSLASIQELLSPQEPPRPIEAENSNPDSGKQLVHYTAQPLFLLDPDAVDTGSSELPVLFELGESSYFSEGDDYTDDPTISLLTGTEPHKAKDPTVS
# [2] = target: T1, Heat shock factor protein 1; experiment: enhancement of HSF1-driven luciferase signal – cell-based, NIH3T3, luminescence, dose retest, confirmation (AID 435004); assay type: functional;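 further: stress induced by proteasome inhibitor MG132 added 30 min after compound; luciferase reporter driven by HSF1 response element in NIH3T3 cells; actives raise luminescence as potentiators of the MG132 stress response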
# [3] = target: T2, Calpain-2 catalytic subunit (Sus scrofa, UniProt P43367); experiment: m-calpain protease blockers, concentration series – biochemical, fluorogenic peptide substrate, dose response (AID 1420); assay type: functional
# T2 sequence (P43367 whole entry): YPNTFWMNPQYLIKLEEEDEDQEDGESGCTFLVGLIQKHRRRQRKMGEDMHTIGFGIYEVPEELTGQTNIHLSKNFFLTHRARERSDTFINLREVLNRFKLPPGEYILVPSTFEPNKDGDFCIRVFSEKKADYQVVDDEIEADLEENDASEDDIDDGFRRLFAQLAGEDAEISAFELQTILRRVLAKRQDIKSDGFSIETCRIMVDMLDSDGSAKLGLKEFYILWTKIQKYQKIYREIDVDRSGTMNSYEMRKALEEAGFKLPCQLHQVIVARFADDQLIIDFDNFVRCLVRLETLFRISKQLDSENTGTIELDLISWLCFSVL
# [4] = target: Luciferin 4-monooxygenase (Photinus pyralis, UniProt P08659); experiment: inhibition of purified Photinus pyralis luciferase – biochemical, luminescence, dose response (AID 1891)
# Luciferin 4-monooxygenase, sequence (P08659 whole entry): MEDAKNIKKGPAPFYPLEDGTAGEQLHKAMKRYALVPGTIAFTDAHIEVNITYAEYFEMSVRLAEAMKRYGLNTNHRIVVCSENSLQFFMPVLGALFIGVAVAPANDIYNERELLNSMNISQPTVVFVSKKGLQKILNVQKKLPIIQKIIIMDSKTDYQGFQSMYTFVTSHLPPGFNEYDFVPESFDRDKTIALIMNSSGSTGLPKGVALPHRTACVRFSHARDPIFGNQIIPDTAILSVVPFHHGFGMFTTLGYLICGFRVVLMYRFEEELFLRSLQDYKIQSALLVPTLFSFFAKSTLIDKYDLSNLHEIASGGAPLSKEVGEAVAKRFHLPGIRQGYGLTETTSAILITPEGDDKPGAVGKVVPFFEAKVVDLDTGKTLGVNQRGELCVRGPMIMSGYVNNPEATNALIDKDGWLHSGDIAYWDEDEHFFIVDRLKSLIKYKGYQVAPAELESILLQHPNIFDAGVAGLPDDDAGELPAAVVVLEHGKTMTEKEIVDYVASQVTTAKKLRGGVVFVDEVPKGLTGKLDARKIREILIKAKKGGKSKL
# [5] = Luminescence Cell-Based Dose Confirmation HTS to Identify Inhibitors of Platelet Dense Granule Release. [Related pubchem assays: 1663 (Primary HTS), 1678 (Summary of Project)]; assay type: functional
# Cytochrome P450 2C19 = Cytochrome P450 2C19 (Homo sapiens, UniProt P33261); experiment: Cytochrome panel assay with activity outcomes. Panel member name: p450-cyp2c19 Compounds with AC50 equal or less than 10 uM are considered active; assay type: functional; conditions: read-out: AC50
# Cytochrome P450 2C19, sequence (P33261 whole entry, the tested form may be a part): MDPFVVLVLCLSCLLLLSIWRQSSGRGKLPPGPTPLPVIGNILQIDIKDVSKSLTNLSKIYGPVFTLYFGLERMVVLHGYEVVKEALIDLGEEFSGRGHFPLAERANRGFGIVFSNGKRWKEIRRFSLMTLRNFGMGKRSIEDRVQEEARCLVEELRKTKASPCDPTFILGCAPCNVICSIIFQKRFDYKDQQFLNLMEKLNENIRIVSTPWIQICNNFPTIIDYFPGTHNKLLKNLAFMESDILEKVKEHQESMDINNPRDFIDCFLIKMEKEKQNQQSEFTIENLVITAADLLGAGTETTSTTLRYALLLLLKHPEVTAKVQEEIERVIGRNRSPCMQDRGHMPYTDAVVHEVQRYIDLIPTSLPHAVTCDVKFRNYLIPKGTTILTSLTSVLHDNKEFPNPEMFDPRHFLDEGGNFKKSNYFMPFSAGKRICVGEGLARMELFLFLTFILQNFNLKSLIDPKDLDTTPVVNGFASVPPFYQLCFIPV
# [6] = HIV-1 AD8 envelope cell-cell fusion blockers – cherry-pick, dose response (AID 652062); assay type: functional, cell-based;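 further: luciferase signal from cell-cell fusion driven by HIV-1 clade B AD8 Env; potency is for inhibitors of fusion seen as a drop in luminescence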
# Cytochrome P450 2D6 = Cytochrome P450 2D6 (Homo sapiens, UniProt P10635);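 further: CYP2D6 member of a cytochrome P450 panel assay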
# Cytochrome P450 2D6, sequence (P10635 whole entry, the tested form may be a part): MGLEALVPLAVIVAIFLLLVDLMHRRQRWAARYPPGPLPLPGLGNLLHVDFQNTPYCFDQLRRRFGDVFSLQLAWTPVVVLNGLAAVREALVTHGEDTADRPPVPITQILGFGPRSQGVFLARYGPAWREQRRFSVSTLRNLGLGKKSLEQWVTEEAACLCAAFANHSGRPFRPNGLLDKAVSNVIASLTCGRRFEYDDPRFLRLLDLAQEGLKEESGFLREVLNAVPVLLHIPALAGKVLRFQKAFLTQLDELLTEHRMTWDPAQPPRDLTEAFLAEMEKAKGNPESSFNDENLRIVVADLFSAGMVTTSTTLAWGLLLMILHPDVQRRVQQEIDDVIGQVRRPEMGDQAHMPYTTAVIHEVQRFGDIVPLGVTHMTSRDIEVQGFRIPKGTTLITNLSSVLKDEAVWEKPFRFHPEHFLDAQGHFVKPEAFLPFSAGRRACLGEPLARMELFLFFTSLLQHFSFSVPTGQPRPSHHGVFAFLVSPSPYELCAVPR
# [7] = target: T3, Polyadenylate-binding protein 1 (Homo sapiens, UniProt P11940); experiment: MLLE domain peptide-binding blockers, IC50 – biochemical, fluorescence polarization, FITC-PAM2 peptide, dose response (AID 602259); assay type: functional; conditions: read-out: IC50_Mean
# T3 sequence (P11940 whole entry, the tested form may be a part): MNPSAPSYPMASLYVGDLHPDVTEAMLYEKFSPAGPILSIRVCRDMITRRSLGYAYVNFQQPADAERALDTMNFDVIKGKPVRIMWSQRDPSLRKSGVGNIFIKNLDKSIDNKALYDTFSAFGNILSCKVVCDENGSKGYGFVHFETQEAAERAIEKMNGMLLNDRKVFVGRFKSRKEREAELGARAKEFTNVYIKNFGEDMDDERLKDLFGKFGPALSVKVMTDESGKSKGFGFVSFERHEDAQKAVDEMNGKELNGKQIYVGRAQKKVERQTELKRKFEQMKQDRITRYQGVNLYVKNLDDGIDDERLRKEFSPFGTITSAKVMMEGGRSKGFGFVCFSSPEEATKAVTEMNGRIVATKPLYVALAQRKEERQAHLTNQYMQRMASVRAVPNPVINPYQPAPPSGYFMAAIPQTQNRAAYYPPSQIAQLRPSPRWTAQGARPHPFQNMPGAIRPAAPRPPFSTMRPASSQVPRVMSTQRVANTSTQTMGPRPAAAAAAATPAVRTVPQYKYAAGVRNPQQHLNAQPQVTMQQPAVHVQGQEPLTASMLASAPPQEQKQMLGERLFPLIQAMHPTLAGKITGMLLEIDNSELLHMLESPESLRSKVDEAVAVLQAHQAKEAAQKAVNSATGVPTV
# [8] = target: T3, Polyadenylate-binding protein 1; experiment: MLLE binding blockers, Cy5 peptide tracer – biochemical, fluorescence polarization, Cy5-PAM2 peptide, secondary, miRNA deadenylation inhibitor project, dose response (AID 602260); assay type: functional; conditions: read-out: IC50_Mean
# cells = assay type: functional
# H9c2 = experiment: cells; assay type: functional, cell-based; conditions: Rattus norvegicus, H9c2, Myocardium;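 further: confirmatory concentration-response retest of ultra-high-throughput screening hits for modulation of myocardial damage; cell death induced by hydrogen peroxide oxidative stress; compound pretreatment for 60 min then peroxide exposure for 2 h; potency is for protecting the cells against peroxide damage rather than for killing them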
# [9] = target: T4, Replicative DNA helicase DnaB (Mycobacterium tuberculosis, UniProt P9WMR3); experiment: DnaB intein splicing inhibitors, dose response, biochemical, cell-free fluorescence (AID 449749); assay type: functional
# T4 sequence (P9WMR3 whole entry): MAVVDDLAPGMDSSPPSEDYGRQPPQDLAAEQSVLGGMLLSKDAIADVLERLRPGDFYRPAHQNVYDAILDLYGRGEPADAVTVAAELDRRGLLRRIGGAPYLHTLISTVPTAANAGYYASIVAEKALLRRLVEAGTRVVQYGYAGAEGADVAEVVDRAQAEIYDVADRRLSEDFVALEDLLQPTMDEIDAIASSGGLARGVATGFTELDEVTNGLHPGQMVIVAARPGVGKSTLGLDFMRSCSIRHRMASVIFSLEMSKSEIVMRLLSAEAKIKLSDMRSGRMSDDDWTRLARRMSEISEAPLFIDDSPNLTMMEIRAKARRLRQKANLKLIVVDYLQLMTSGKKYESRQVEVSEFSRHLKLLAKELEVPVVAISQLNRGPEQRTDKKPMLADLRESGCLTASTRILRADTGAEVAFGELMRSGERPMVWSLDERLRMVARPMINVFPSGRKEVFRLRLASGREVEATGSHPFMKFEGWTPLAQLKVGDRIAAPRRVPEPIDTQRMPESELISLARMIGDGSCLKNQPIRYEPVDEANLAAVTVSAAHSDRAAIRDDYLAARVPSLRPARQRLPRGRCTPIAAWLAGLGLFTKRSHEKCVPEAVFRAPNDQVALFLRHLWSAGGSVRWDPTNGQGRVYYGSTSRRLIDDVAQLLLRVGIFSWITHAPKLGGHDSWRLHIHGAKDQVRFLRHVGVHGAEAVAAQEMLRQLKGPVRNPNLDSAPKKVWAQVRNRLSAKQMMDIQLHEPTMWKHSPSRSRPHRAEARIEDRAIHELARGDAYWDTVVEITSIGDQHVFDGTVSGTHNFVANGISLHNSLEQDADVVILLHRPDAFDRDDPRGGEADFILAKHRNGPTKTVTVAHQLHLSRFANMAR
# Protein RecA = target: T5, Protein RecA (Mycobacterium tuberculosis, UniProt P9WHJ3); experiment: Fluorescence Cell-Free Homogeneous Dose Retest to Identify Inhibitors of RecA-Intein Splicing Activity. [Related pubchem assays (depositor defined):AID2097, AID2223, AID489010, AID492950]; assay type: functional
# T5 sequence (P9WHJ3 whole entry): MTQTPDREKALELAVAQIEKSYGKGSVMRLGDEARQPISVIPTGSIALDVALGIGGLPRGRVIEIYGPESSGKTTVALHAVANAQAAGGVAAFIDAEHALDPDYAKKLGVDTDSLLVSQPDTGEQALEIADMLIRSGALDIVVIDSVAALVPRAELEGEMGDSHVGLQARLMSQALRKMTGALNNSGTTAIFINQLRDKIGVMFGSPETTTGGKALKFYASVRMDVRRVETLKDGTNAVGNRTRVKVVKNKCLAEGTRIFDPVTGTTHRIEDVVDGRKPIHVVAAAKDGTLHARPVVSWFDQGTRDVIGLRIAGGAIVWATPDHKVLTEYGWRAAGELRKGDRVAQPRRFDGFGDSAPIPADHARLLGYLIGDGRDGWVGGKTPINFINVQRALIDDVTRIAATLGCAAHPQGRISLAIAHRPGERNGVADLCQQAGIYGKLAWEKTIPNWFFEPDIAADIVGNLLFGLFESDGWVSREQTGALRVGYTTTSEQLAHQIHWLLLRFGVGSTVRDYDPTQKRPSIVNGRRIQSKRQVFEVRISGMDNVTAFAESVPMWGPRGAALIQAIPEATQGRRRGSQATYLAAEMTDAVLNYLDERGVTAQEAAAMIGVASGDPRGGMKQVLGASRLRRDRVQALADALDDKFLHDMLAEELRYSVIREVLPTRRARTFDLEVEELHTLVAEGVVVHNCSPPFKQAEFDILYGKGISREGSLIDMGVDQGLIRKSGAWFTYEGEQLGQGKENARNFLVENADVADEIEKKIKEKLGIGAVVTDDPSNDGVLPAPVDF
# [10] = microbe, parasite or virus in culture; assay type: functional; conditions: Mycobacterium tuberculosis
# [11] = Luminescence Cell-Based Dose Retest to Confirm Inhibitors of Cancer Stem Cells. [Related pubchem assays (depositor defined):AID2717, AID2721]; assay type: functional; conditions: Homo sapiens
# [12] = non-specific 3'UTR reporter inhibition in Clone20-Shn3RL – cell-based, Renilla luciferase, cherry-picked, counter-screen for Shn3 inhibitor project, dose response (AID 624133); assay type: functional
# [13] = reduction of Shn3 3'UTR-driven luciferase in osteoblasts – cell-based, Clone20 osteoblasts, firefly luciferase, cherry-picked, dose response (AID 624132); assay type: functional;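 further: firefly luciferase luminescence from reporter carrying the Shn3 3'UTR in osteoblasts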
# [14] = target: T6, Zinc finger protein mex-5 (Caenorhabditis elegans, UniProt Q9XUB2); experiment: potency of MEX-5 RNA-binding blockers – biochemical, C. elegans, fluorescence polarization, dose response (AID 1960)
# T6 sequence (Q9XUB2 whole entry): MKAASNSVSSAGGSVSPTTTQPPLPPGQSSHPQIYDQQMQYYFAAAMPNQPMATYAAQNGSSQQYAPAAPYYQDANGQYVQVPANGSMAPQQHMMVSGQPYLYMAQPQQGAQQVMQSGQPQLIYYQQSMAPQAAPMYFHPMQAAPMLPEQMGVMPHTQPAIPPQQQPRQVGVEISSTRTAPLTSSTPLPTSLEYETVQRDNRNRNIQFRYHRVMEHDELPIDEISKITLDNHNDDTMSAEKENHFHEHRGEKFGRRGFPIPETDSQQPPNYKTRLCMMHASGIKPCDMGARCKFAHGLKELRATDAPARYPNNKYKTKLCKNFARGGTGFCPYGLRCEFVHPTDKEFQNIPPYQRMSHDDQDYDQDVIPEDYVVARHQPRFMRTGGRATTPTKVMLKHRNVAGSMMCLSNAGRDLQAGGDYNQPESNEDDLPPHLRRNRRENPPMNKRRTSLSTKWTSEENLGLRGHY
# [15] = P. falciparum Dd2 growth inhibitors, dose response, SYBR Green, cherry-picked samples (AID 1159567); assay type: functional, cell-based
smiles,measurement,setting,value
CCOc1ccccc1NC(=O)CCS(=O)(=O)c1cccs1,EC50,[1],> 195 µM (not active)
Cn1c(SCC(=O)NNC(=O)Nc2ccc(Cl)cc2)nnc1-c1ccccc1,EC50,[2],> 260 µM (inactive)
COC(=O)c1c(NC(NC(C)=O)C(Cl)(Cl)Cl)sc2c1CCCC2 (stereo unspecified),IC50,[3],> 50 µM (not active)
COC(=O)c1sccc1NC(=O)Nc1cccc(F)c1,EC50,[4],0.93 µM (active)
same,EC50,[5],4.6 µM (active)
same,EC50,[2],237 µM (active)
CCCCOc1ccc(S(=O)(=O)Nc2cccnc2)cc1,AC50,Cytochrome P450 2C19,0.355 µM (inconclusive)
same,AC50,[6],7.89 µM (active)
same,AC50,Cytochrome P450 2D6,25.1 µM (inconclusive)
CC1Cc2ccccc2N1C(=O)CSc1ncccc1C(=O)O (stereo unspecified),EC50,[1],> 195 µM (not active)
CCN=C(S)NS(=O)(=O)c1ccc(C)cc1,IC50,[7],> 66 µM (inactive)
same,IC50,[8],> 66 µM (inactive)
CCN(CC)CCCN1C(=O)CSC1c1ccc([N+](=O)[O-])cc1 (stereo unspecified),IC50,[7],> 66 µM (inactive)
same,IC50,[8],> 66 µM (inactive)
Cc1ccc(CN(C)C(=O)C2CCC(=O)N(CCc3ccccc3)C2)o1 (stereo unspecified),EC50,[2],> 260 µM (inactive)
Cc1ccc(CCC(=O)Nc2ccc(C)c(C)c2)o1,IC50,cells,49.8 µM (active)
COc1ccc(NC(=O)NNC(=O)c2cc3occc3n2C)c(OC)c1,EC50,[2],> 260 µM (inactive)
COc1ccc(COc2cccc(C=O)c2)cc1,IC50,cells,30.9 µM (active)
CCN1C(NCCc2cccs2)=N[C@@H](c2cccs2)C(C(=O)OC)=C1C,EC50,[1],> 195 µM (not active)
Cc1ccnc(SC2CC(=O)N(c3ccc([N+](=O)[O-])cc3)C2=O)n1 (stereo unspecified),IC50,[7],> 66 µM (inactive)
same,IC50,[8],> 66 µM (inactive)
COc1cc(NC(=O)c2cc3ccccc3cc2OC)ccc1NC(=O)c1cccs1,IC50,H9c2,> 79 µM (inactive)
same,EC50,[1],14.1 µM (active)
CCC(c1nnnn1Cc1ccco1)N(Cc1cc2cc(OC)ccc2nc1O)C1CCCCC1 (stereo unspecified),AC50,[9],> 380 µM (inactive)
same,EC50,Protein RecA,40.2 µM (inconclusive)
same,EC50,[2],10.7 µM (active)
O=C(c1ccc(COc2ccc(Cl)cc2)cc1)N1CCCCC1,IC50,[3],10.4 µM (not active)
CCOc1ccc(CN(C)CC(O)COC(c2ccc(OC)cc2)c2ccc(OC)cc2)cc1 (stereo unspecified),CC50,[10],26.6 µM (active)
same,EC50,[2],> 260 µM (inactive)
COc1ccc(Cn2nnnc2C(c2ccccc2Cl)N2CCC(C(N)=O)CC2)cc1 (stereo unspecified),EC50,[1],> 195 µM (not active)
Cc1ccc(/C=C/C(=O)N2CC(C)CC(C)C2)o1 (stereo unspecified),CC50,[10],> 40 µM (active)
same,AC50,[11],22.8 µM (active)
same,EC50,[2],24.5 µM (active)
CC1=C(C(=O)Nc2ccccc2C)C(c2cccs2)NC(S)=N1 (stereo unspecified),EC50,[1],> 195 µM (not active)
Cc1ccccc1-n1c(=O)cc(N2CCc3ccccc32)[nH]c1=O,EC50,[1],> 195 µM (not active)
Cc1ccc2cc(CN(CC3CCCO3)C(=O)NC3CCCCC3)c(O)nc2c1C (stereo unspecified),AC50,[12],9.37 µM (active)
same,AC50,[13],4.49 µM (active)
CCOC(=O)Cc1nc2cc(Cl)ccc2o1,IC50,cells,18.6 µM (active)
C=CCn1c(=O)/c(=C/c2ccc(C)o2)s/c1=C(/C#N)C(=O)c1ccccc1,EC50,[14],> 300 µM (inconclusive)
COc1ccccc1/C=N/NC(=O)c1ccc(Br)cc1,IC50,[3],45.9 µM (not active)
CCCC/N=C(/C)c1c(O)oc2ccccc2c1=O,IC50,[3],19.7 µM (not active)
N#Cc1ccc(-c2ccc([C@@H]3[C@@H]4CN(Cc5cocn5)C[C@H]3N4)cc2)cc1,AC50,[15],3.73 µM (active)
COc1ccc2c3c(n(C)c2c1)[C@H](CO)N(C(=O)Nc1ccc(F)cc1)CC31CN(Cc2cccnc2)C1,AC50,[15],3.4 µM (active)
COc1ccc2c3c([nH]c2c1)[C@H](CO)N(Cc1nccs1)CC31CN(Cc2cccnc2)C1,AC50,[15],10.7 µM (active)
Cc1ccccc1S(=O)(=O)N1C[C@@H]2N[C@H](C1)[C@@H]2c1ccc(-c2ccc(C#N)cc2)cc1,AC50,[15],3.32 µM (active)
COc1ccc2c3c(n(C)c2c1)[C@H](CO)N(C(=O)c1cccc(F)c1)CC31CN(C(=O)c2cccc(F)c2)C1,AC50,[15],9.32 µM (active)
